Among the data in ChEMBL document CHEMBL3991601, “The target landscape of clinical kinase drugs” (Science, 2017) are Kd values, retold here.

Assay [1] deals with Cyclin-dependent kinase 4 (Homo sapiens, UniProt P11802).
The target of assay [2] is Glycogen synthase kinase-3 beta (Homo sapiens, UniProt P49841).
Assay [3] concerns the target Serine/threonine-protein kinase B-raf (Homo sapiens, UniProt P15056).
Assay [4] has as its target Insulin-like growth factor 1 receptor (Homo sapiens, UniProt P08069).
Assay [5] has as its target T1, Signal recognition particle receptor subunit alpha (Homo sapiens, UniProt P08240).
T1 sequence (P08240 whole entry): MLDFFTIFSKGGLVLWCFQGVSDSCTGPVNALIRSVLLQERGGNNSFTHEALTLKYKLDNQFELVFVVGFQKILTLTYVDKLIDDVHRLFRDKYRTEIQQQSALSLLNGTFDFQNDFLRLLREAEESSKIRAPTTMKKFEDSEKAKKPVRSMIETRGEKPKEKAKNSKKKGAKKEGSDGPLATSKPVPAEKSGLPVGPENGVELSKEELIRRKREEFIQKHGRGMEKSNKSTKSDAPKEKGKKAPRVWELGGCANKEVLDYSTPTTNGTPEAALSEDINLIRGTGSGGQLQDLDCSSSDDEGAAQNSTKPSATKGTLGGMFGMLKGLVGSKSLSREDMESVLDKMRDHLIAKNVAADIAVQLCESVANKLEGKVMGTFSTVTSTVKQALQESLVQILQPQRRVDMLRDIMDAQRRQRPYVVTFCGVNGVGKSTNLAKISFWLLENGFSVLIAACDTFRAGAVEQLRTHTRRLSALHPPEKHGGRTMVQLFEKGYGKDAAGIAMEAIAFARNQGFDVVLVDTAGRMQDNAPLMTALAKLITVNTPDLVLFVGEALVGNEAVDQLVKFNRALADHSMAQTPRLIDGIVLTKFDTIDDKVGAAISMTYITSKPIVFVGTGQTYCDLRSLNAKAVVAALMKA

Assay [6] concerns the target Cyclin-dependent kinase 12 (Homo sapiens, UniProt Q9NYV4).
The target of a further assay is Ephrin type-A receptor 4 (Homo sapiens, UniProt P54764).
Assay [7] has as its target Cyclin-dependent kinase 5 (Homo sapiens, UniProt Q00535).
The target of assay [8] is Dual specificity protein kinase CLK1 (Homo sapiens, UniProt P49759).
The target of assay [9] is Serine/threonine-protein kinase/endoribonuclease IRE1 (Homo sapiens, UniProt O75460).
Assay [10] concerns the target Mitogen-activated protein kinase 10 (Homo sapiens, UniProt P53779).
In assay [11] the target is Casein kinase I isoform epsilon (Homo sapiens, UniProt P49674).
Assay [12] has as its target Adenylate kinase 2, mitochondrial (Homo sapiens, UniProt P54819).
Assay [13] deals with T2, Mitogen-activated protein kinase 15 (Homo sapiens, UniProt Q8TD08).
T2 sequence (Q8TD08 whole entry): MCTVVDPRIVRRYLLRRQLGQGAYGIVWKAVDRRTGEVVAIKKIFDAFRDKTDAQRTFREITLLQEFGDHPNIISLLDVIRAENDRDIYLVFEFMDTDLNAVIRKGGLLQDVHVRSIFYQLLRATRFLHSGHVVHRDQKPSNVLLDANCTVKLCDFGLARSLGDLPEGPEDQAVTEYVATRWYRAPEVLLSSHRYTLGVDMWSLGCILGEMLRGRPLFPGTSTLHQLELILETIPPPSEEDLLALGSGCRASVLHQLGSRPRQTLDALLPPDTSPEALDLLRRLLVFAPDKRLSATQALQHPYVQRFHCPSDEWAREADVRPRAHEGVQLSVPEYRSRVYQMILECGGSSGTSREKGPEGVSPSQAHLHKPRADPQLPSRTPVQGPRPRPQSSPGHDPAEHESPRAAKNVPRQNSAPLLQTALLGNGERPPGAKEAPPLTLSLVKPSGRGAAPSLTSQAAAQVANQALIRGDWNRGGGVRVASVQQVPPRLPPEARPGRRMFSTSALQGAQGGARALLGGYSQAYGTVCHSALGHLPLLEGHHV

Assay [14] has as its target T3, EKC/KEOPS complex subunit TP53RK (Homo sapiens, UniProt Q96S44).
T3 sequence (Q96S44 whole entry): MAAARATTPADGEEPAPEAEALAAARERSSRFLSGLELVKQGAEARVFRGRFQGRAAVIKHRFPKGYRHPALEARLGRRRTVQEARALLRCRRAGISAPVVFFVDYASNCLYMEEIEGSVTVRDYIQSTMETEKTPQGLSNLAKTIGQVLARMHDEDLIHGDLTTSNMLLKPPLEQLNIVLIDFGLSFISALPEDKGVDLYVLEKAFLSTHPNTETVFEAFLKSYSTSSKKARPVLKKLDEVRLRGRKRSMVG

Assay [15] deals with T4, cGMP-dependent protein kinase 1 (Homo sapiens, UniProt Q13976).
T4 sequence (Q13976 whole entry): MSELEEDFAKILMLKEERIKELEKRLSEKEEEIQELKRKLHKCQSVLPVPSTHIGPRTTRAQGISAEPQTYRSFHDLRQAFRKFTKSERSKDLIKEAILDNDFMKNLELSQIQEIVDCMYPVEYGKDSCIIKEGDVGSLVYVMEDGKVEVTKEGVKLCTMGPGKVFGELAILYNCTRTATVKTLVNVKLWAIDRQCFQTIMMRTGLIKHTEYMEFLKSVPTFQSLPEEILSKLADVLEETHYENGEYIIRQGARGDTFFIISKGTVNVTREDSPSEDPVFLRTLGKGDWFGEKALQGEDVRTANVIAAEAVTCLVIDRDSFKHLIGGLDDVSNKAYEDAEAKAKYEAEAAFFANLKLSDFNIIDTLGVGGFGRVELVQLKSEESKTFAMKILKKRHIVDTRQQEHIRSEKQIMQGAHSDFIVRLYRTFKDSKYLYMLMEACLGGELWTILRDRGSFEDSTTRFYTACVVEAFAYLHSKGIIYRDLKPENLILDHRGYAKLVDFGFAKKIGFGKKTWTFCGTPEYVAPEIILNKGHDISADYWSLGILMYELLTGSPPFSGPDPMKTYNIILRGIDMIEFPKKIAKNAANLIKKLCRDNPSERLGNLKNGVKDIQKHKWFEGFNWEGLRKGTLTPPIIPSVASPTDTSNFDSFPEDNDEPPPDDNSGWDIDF

SMILES strings stand for the structures. Active and inactive are the calls of the source. Cut-off read from the data, not from the text of the source, for most assays here: actives have a measured Kd and inactives only a lower limit.
Note: in the data inactive means no Kd found up to 30 µM.

Sequence of Insulin-like growth factor 1 receptor (P08069 31-736 limits assumed): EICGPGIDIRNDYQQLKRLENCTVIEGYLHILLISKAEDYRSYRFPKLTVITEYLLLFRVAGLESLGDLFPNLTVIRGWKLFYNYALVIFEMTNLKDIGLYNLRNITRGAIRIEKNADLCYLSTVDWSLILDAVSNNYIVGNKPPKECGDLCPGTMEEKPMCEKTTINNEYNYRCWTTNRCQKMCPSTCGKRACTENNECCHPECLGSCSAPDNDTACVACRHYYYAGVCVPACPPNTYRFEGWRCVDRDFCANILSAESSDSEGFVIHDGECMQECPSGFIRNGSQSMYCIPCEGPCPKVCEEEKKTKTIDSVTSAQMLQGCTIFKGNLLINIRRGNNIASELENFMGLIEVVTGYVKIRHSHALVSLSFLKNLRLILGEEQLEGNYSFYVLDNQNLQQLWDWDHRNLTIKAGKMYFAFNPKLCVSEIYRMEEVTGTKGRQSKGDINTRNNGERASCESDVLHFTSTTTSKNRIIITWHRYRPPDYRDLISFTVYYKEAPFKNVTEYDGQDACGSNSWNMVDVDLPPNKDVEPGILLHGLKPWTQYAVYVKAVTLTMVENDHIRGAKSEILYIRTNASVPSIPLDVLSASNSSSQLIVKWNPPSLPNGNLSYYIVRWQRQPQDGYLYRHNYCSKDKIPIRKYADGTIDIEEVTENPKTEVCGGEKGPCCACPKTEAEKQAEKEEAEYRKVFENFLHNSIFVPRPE
Sequence of Insulin-like growth factor 1 receptor (P08069 741-1367 limits assumed): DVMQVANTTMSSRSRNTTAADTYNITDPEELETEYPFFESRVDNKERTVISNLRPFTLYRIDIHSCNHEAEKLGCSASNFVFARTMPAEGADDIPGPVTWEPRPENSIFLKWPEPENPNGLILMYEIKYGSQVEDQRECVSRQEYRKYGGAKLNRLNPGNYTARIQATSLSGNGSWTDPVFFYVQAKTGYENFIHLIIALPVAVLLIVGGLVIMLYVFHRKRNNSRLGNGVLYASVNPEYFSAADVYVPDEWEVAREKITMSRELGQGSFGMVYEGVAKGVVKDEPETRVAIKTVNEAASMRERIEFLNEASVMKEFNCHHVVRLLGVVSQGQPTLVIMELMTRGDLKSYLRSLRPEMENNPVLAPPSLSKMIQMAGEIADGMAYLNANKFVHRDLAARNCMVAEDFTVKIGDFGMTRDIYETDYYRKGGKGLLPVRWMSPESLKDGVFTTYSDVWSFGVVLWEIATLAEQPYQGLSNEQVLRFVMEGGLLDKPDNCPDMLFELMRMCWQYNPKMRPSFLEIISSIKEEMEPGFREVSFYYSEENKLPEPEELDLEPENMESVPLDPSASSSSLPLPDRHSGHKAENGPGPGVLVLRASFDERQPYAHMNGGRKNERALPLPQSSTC
Sequence of Mitogen-activated protein kinase 10 (P53779 whole entry, canonical isoform): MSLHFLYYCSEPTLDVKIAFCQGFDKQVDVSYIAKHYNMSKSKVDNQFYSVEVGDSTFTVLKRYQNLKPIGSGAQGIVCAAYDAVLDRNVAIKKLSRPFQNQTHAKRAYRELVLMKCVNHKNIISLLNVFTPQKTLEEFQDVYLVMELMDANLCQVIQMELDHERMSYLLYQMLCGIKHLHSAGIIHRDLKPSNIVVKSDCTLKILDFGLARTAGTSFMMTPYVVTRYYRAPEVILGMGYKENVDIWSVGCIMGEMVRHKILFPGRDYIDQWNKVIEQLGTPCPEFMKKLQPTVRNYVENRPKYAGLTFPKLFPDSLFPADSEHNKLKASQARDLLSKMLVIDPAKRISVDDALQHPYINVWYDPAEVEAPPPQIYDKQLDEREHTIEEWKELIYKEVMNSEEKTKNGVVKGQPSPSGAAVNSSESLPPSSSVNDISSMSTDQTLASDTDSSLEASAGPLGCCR
Sequence of Casein kinase I isoform epsilon (P49674 whole entry, canonical isoform): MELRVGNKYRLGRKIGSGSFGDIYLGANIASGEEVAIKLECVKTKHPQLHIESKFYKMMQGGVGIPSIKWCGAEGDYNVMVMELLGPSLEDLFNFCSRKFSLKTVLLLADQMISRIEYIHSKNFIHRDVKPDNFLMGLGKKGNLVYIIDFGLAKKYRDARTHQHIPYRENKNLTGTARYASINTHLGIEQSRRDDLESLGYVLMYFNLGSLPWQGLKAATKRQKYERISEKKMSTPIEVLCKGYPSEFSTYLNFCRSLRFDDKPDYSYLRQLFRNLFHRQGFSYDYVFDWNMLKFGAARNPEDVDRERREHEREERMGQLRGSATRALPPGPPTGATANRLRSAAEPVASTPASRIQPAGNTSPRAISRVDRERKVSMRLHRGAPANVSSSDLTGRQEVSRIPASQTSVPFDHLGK
Sequence of Serine/threonine-protein kinase/endoribonuclease IRE1 (O75460 whole entry): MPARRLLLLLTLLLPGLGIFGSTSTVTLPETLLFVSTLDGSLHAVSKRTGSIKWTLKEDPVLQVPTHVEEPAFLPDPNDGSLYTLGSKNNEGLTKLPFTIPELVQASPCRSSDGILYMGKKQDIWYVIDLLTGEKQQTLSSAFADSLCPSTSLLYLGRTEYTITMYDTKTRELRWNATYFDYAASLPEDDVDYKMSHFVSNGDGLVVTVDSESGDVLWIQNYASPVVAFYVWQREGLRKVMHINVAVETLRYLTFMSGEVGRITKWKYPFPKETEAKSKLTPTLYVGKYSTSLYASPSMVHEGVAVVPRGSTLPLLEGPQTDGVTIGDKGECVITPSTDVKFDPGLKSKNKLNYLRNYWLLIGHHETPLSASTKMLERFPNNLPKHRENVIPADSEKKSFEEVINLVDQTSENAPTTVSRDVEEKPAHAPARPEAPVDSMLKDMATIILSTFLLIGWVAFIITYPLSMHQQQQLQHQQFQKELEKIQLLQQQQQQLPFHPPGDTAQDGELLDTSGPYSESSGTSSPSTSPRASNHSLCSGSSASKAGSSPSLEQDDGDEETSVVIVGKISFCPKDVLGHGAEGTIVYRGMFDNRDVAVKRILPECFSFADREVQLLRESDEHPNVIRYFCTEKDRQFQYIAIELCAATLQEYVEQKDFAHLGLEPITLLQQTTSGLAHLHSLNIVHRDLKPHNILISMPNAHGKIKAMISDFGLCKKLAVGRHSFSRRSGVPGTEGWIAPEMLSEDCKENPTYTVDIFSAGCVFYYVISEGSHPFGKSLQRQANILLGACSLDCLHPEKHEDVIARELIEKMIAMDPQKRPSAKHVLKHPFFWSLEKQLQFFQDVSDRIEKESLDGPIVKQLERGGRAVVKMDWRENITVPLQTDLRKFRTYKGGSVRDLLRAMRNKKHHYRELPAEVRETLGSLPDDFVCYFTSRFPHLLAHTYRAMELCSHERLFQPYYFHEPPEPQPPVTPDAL
Sequence of Glycogen synthase kinase-3 beta (P49841 whole entry): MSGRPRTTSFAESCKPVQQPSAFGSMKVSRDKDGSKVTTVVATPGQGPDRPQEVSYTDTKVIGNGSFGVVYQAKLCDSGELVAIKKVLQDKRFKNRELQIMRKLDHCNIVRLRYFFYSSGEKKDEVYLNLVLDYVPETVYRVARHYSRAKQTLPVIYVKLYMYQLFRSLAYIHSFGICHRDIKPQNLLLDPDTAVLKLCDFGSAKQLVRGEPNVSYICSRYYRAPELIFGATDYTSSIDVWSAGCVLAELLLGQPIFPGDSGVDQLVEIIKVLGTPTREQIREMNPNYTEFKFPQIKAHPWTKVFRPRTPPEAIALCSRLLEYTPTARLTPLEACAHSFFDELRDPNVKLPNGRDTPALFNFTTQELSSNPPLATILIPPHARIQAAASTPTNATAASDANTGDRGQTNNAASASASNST
Sequence of Ephrin type-A receptor 4 (P54764 whole entry): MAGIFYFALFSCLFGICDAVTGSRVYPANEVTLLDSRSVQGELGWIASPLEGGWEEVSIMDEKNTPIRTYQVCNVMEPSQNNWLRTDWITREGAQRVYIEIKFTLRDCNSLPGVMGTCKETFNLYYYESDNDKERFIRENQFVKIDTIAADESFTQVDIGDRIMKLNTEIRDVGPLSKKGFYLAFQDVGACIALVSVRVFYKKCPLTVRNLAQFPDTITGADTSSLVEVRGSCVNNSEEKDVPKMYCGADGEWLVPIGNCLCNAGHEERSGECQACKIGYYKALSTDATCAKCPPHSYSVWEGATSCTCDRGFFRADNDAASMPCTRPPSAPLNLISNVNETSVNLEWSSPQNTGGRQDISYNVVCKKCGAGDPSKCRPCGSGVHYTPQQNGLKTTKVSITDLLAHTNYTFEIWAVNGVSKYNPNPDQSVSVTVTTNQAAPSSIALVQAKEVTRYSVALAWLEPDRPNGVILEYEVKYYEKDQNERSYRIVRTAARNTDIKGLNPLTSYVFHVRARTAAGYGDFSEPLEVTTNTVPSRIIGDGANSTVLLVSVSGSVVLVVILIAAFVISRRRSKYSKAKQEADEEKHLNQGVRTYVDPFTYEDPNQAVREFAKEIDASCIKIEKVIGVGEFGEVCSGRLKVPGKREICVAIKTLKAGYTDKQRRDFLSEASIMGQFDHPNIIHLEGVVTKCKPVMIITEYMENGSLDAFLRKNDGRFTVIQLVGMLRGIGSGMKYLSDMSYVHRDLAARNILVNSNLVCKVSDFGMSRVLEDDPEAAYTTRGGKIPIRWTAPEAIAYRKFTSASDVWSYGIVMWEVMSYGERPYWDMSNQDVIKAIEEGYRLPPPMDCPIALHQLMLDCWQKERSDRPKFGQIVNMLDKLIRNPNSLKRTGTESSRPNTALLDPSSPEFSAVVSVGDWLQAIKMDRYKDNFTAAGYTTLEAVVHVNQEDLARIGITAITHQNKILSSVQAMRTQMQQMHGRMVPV
Sequence of Cyclin-dependent kinase 5 (Q00535 whole entry): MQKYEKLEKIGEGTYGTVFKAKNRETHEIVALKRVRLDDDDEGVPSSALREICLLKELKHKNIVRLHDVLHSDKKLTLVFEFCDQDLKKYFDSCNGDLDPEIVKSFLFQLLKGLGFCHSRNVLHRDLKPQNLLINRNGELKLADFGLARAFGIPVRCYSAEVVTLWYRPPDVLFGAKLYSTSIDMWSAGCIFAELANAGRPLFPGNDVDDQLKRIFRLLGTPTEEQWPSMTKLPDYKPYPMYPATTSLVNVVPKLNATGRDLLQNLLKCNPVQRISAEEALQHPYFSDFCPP

Broadly, the Kd is the equilibrium constant for the complex coming apart. `O=C(Cc1ccc(-c2ccc(OCCN3CCOCC3)cc2)cn1)NCc1ccccc1` [TIRBANIBULIN]: the Kd in assay [1], in assay [2], in [3], in assay [4], in assay [5] and in assay [6] was > 30 µM (inactive) each time. For the same compound, the Kd (at Ephrin type-A receptor 4; in assay [7]; in [8]; in assay [9]; in assay [10]; in assay [11]) was > 30 µM (inactive) each time. For the same compound, the Kd in assay [12], in [13], in [14] and in assay [15] was > 30 µM (inactive) each time.

With `O=C1NC(=O)[C@@H](c2cn3c4c(cccc24)CCC3)[C@@H]1c1c[nH]c2ccccc12` [TIVANTINIB], the Kd in assay [1], in assay [2], in assay [3], in assay [4], in [5] and in [6] was > 30 µM (inactive) in each case. The Kd (at Ephrin type-A receptor 4; in assay [7]; in [8]; in assay [9]; in assay [10]; in assay [11]) was > 30 µM (inactive) throughout. The Kd in assay [12], in [13], in assay [14] and in assay [15] was > 30 µM (inactive) throughout.

As to `C[C@@H](N)c1ccc(C(=O)Nc2ccnc3[nH]ccc23)cc1` [Y-39983], the Kd in assay [1] is > 30 µM (inactive); in [2] it was 0.924 µM (active); in assay [3], > 30 µM (inactive); in assay [4], > 30 µM (inactive); in assay [5], > 30 µM (inactive); in assay [6], > 30 µM (inactive). The Kd on Ephrin type-A receptor 4 was > 30 µM (inactive); in assay [7], > 30 µM (inactive); in assay [8] it was 0.018 µM (active); in assay [9], > 30 µM (inactive); in assay [10], > 30 µM (inactive); in assay [11] it was > 30 µM (inactive). The Kd in assay [12], in assay [13], in assay [14] and in assay [15] was > 30 µM (inactive) throughout.

With `CN1C/C=C/CCOc2cccc(c2)-c2ccnc(n2)Nc2cccc(c2)C1` [ZOTIRACICLIB], the Kd in assay [1] is > 30 µM (inactive); in assay [2] it was 0.447 µM (active); in assay [3] it was > 30 µM (inactive); in assay [4], > 30 µM (inactive); in [5], > 30 µM (inactive); in assay [6], 5.63 µM (active). Moreover, the Kd is > 30 µM (inactive) at Ephrin type-A receptor 4; 0.93 µM (active) in assay [7]; > 30 µM (inactive) in assay [8]; > 30 µM (inactive) in assay [9]; > 30 µM (inactive) in assay [10]; > 30 µM (inactive) in [11]. Further, the Kd in assay [12] is > 30 µM (inactive); in assay [13] it was 1.07 µM (active); in [14], > 30 µM (inactive); in assay [15] it was > 30 µM (inactive).
